Measured values: patent US20230085307A1, “PYRIDAZINONE COMPOUND AND HERBICIDE” (NISSAN CHEMICAL CORPORATION, priority 2019, published 2023)

Experiments:
wild oat [1] = assay: Test Example 5: herbicidal effect by foliage application, plastic box (Table 20, symbol I); format: in vivo, wild oat (Avena fatua); details: 320 g/ha, foliage application after 14-day growth, evaluated three weeks after application
Summary of the method: (§1)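 Plants were sown into sterilized diluvial soil under about 1.5 cm cover and kept in a greenhouse at 25° C. to 30° C. Fourteen days on, foliage received an even spray of the diluted emulsion. Herbicidal or crop effect was judged three weeks afterwards.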

Chinese sprangletop = assay: Test Example 3: herbicidal effect by foliage application, Wagner pot (Table 18, symbol D); format: in vivo, chinese sprangletop (Leptochloa chinensis); details: 320 g/ha
Summary of the method: (§2)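 Plants were sown in alluvial soil held under 0.1–0.5 cm standing water and grown 14 days in a greenhouse at 25–30 °C. An emulsifiable formulation, water-diluted to the set dose, was then sprayed onto the foliage, and effects were scored three weeks later using previously defined criteria.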

windgrass [2] = assay: Test Example 5: herbicidal effect by foliage application, plastic box (Table 20, symbol L); format: in vivo, windgrass (Apera spica-venti); details: 320 g/ha, foliage application after 14-day growth, evaluated three weeks after application
Summary of the method: as §1

velvetleaf [3] = assay: Test Example 4: herbicidal effect by soil treatment (Table 19, symbol M); format: in vivo, velvetleaf (Abutilon theophrasti); details: amount of applied herbicide 320 g/ha
Summary of the method: (§3)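 In this soil treatment, the formulated compound reached the seeds only through the soil: seeds were buried about 1.5 cm deep in sterilized diluvial soil, then the diluted emulsion was sprayed over the surface. After three weeks at 25° C. to 30° C. in a greenhouse, effects were graded on criteria from an earlier test.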

Italian ryegrass [4] = assay: Test Example 5: herbicidal effect by foliage application, plastic box (Table 20, symbol K); format: in vivo, Italian ryegrass (Lolium multiflorum); details: 320 g/ha, foliage application after 14-day growth, evaluated three weeks after application
Summary of the method: as §1

green foxtail [5] = assay: Test Example 4: herbicidal effect by soil treatment (Table 19, symbol G); format: in vivo, green foxtail (Setaria viridis); details: amount of applied herbicide 320 g/ha
Summary of the method: as §3

green foxtail [6] = assay: Test Example 5: herbicidal effect by foliage application, plastic box (Table 20, symbol G); format: in vivo, green foxtail (Setaria viridis); details: 320 g/ha, foliage application after 14-day growth, evaluated three weeks after application
Summary of the method: as §1

blackgrass [7] = assay: Test Example 4: herbicidal effect by soil treatment (Table 19, symbol J); format: in vivo, blackgrass (Alopecurus myosuroides); details: amount of applied herbicide 320 g/ha
Summary of the method: as §3

barnyard grass [8] = assay: Test Example 5: herbicidal effect by foliage application, plastic box (Table 20, symbol H); format: in vivo, barnyard grass (Echinochloa crus-galli); details: 320 g/ha, foliage application after 14-day growth, evaluated three weeks after application
Summary of the method: as §1

southern crabgrass [9] = assay: Test Example 4: herbicidal effect by soil treatment (Table 19, symbol F); format: in vivo, southern crabgrass (Digitaria ciliaris); details: amount of applied herbicide 320 g/ha
Summary of the method: as §3

velvetleaf [10] = assay: Test Example 5: herbicidal effect by foliage application, plastic box (Table 20, symbol M); format: in vivo, velvetleaf (Abutilon theophrasti); details: 320 g/ha, foliage application after 14-day growth, evaluated three weeks after application
Summary of the method: as §1

redroot pigweed [11] = assay: Test Example 5: herbicidal effect by foliage application, plastic box (Table 20, symbol N); format: in vivo, redroot pigweed (Amaranthus retroflexus); details: 320 g/ha, foliage application after 14-day growth, evaluated three weeks after application
Summary of the method: as §1

barnyard grass [12] = assay: Test Example 3: herbicidal effect by foliage application, Wagner pot (Table 18, symbol H); format: in vivo, barnyard grass (Echinochloa crus-galli); details: 320 g/ha
Summary of the method: as §2

Italian ryegrass [13] = assay: Test Example 4: herbicidal effect by soil treatment (Table 19, symbol K); format: in vivo, Italian ryegrass (Lolium multiflorum); details: amount of applied herbicide 320 g/ha
Summary of the method: as §3

windgrass [14] = assay: Test Example 4: herbicidal effect by soil treatment (Table 19, symbol L); format: in vivo, windgrass (Apera spica-venti); details: amount of applied herbicide 320 g/ha
Summary of the method: as §3

persian speedwell [15] = assay: Test Example 5: herbicidal effect by foliage application, plastic box (Table 20, symbol R); format: in vivo, Persian speedwell (Veronica persica); details: 320 g/ha, foliage application after 14-day growth, evaluated three weeks after application
Summary of the method: as §1

barnyard grass [16] = assay: Test Example 4: herbicidal effect by soil treatment (Table 19, symbol H); format: in vivo, barnyard grass (Echinochloa crus-galli); details: amount of applied herbicide 320 g/ha
Summary of the method: as §3

redroot pigweed [17] = assay: Test Example 4: herbicidal effect by soil treatment (Table 19, symbol N); format: in vivo, redroot pigweed (Amaranthus retroflexus); details: amount of applied herbicide 320 g/ha
Summary of the method: as §3

rice flat sedge = assay: Test Example 3: herbicidal effect by foliage application, Wagner pot (Table 18, symbol E); format: in vivo, rice flat sedge (Cyperus iria); details: 320 g/ha
Summary of the method: as §2

lambsquarters [18] = assay: Test Example 4: herbicidal effect by soil treatment (Table 19, symbol O); format: in vivo, lambsquarters (Chenopodium album); details: amount of applied herbicide 320 g/ha
Summary of the method: as §3

persian speedwell [19] = assay: Test Example 4: herbicidal effect by soil treatment (Table 19, symbol R); format: in vivo, Persian speedwell (Veronica persica); details: amount of applied herbicide 320 g/ha
Summary of the method: as §3

wild oat [20] = assay: Test Example 4: herbicidal effect by soil treatment (Table 19, symbol I); format: in vivo, wild oat (Avena fatua); details: amount of applied herbicide 320 g/ha
Summary of the method: as §3

blackgrass [21] = assay: Test Example 5: herbicidal effect by foliage application, plastic box (Table 20, symbol J); format: in vivo, blackgrass (Alopecurus myosuroides); details: 320 g/ha, foliage application after 14-day growth, evaluated three weeks after application
Summary of the method: as §1

southern crabgrass [22] = assay: Test Example 5: herbicidal effect by foliage application, plastic box (Table 20, symbol F); format: in vivo, southern crabgrass (Digitaria ciliaris); details: 320 g/ha, foliage application after 14-day growth, evaluated three weeks after application
Summary of the method: as §1

chickweed [23] = assay: Test Example 5: herbicidal effect by foliage application, plastic box (Table 20, symbol P); format: in vivo, common chickweed (Stellaria media); details: 320 g/ha, foliage application after 14-day growth, evaluated three weeks after application
Summary of the method: as §1

lambsquarters [24] = assay: Test Example 5: herbicidal effect by foliage application, plastic box (Table 20, symbol O); format: in vivo, lambsquarters (Chenopodium album); details: 320 g/ha, foliage application after 14-day growth, evaluated three weeks after application
Summary of the method: as §1

chickweed [25] = assay: Test Example 4: herbicidal effect by soil treatment (Table 19, symbol P); format: in vivo, common chickweed (Stellaria media); details: amount of applied herbicide 320 g/ha
Summary of the method: as §3

SMILES	herbicidal effect on I: wild oat (evaluation grade 0-5) (wild oat [1])	herbicidal effect on Chinese sprangletop (D) (Chinese sprangletop)	herbicidal effect on L: windgrass (evaluation grade 0-5) (windgrass [2])	Herbicidal effect by soil treatment, M: velvetleaf (velvetleaf [3])	herbicidal effect on K: Italian ryegrass (evaluation grade 0-5) (Italian ryegrass [4])	Herbicidal effect by soil treatment, G: green foxtail (green foxtail [5])	herbicidal effect on G: green foxtail (evaluation grade 0-5) (green foxtail [6])	Herbicidal effect by soil treatment, J: blackgrass (blackgrass [7])	herbicidal effect on H: barnyard grass (evaluation grade 0-5) (barnyard grass [8])	Herbicidal effect by soil treatment, F: southern crabgrass (southern crabgrass [9])	herbicidal effect on M: velvetleaf (evaluation grade 0-5) (velvetleaf [10])	herbicidal effect on N: redroot pigweed (evaluation grade 0-5) (redroot pigweed [11])	herbicidal effect on barnyard grass (H) (barnyard grass [12])	Herbicidal effect by soil treatment, K: Italian ryegrass (Italian ryegrass [13])	Herbicidal effect by soil treatment, L: windgrass (windgrass [14])	herbicidal effect on R: persian speedwell (evaluation grade 0-5) (persian speedwell [15])	Herbicidal effect by soil treatment, H: barnyard grass (barnyard grass [16])	Herbicidal effect by soil treatment, N: redroot pigweed (redroot pigweed [17])	herbicidal effect on rice flat sedge (E) (rice flat sedge)	Herbicidal effect by soil treatment, O: lambsquarters (lambsquarters [18])	further results
Cc1ccc2c(-c3c(O)c(C)nn(C)c3=O)c(-c3ccc(OC(F)F)cc3)sc2c1 [3-151]	0 (Herbicidal rate of 5% or less (almost no effect))	0 (Herbicidal rate of 5% or less (almost no effect))	0 (Herbicidal rate of 5% or less (almost no effect))	0 (Herbicidal rate of 5% or less (almost no effect))	2 (Herbicidal rate of 20% or more and less than 40%)	0 (Herbicidal rate of 5% or less (almost no effect))	0 (Herbicidal rate of 5% or less (almost no effect))	0 (Herbicidal rate of 5% or less (almost no effect))	0 (Herbicidal rate of 5% or less (almost no effect))	0 (Herbicidal rate of 5% or less (almost no effect))	3 (Herbicidal rate of 40% or more and less than 70%)	2 (Herbicidal rate of 20% or more and less than 40%)	3 (Herbicidal rate of 40% or more and less than 70%)	0 (Herbicidal rate of 5% or less (almost no effect))	0 (Herbicidal rate of 5% or less (almost no effect))	5 (Herbicidal rate of 90% or more (almost completely withered))	0 (Herbicidal rate of 5% or less (almost no effect))	0 (Herbicidal rate of 5% or less (almost no effect))	3 (Herbicidal rate of 40% or more and less than 70%)	0 (Herbicidal rate of 5% or less (almost no effect))	Herbicidal effect by soil treatment, R: persian speedwell (persian speedwell [19]): 5 (Herbicidal rate of 90% or more (almost completely withered)); Herbicidal effect by soil treatment, I: wild oat (wild oat [20]): 0 (Herbicidal rate of 5% or less (almost no effect)); herbicidal effect on J: blackgrass (evaluation grade 0-5) (blackgrass [21]): 0 (Herbicidal rate of 5% or less (almost no effect)); herbicidal effect on F: southern crabgrass (evaluation grade 0-5) (southern crabgrass [22]): 0 (Herbicidal rate of 5% or less (almost no effect)); herbicidal effect on P: chickweed (evaluation grade 0-5) (chickweed [23]): 5 (Herbicidal rate of 90% or more (almost completely withered)); herbicidal effect on O: lambsquarters (evaluation grade 0-5) (lambsquarters [24]): 3 (Herbicidal rate of 40% or more and less than 70%); Herbicidal effect by soil treatment, P: chickweed (chickweed [25]): 1 (Herbicidal rate of 5% or more and less than 20%)
COc1ccccc1-c1sc2cc(S(C)(=O)=O)ccc2c1-c1c(O)c(C)nn(C)c1=O [3-165]	4 (Herbicidal rate of 70% or more and less than 90%)	4 (Herbicidal rate of 70% or more and less than 90%)	5 (Herbicidal rate of 90% or more (almost completely withered))	1 (Herbicidal rate of 5% or more and less than 20%)	4 (Herbicidal rate of 70% or more and less than 90%)	3 (Herbicidal rate of 40% or more and less than 70%)	4 (Herbicidal rate of 70% or more and less than 90%)	3 (Herbicidal rate of 40% or more and less than 70%)	5 (Herbicidal rate of 90% or more (almost completely withered))	5 (Herbicidal rate of 90% or more (almost completely withered))	5 (Herbicidal rate of 90% or more (almost completely withered))	4 (Herbicidal rate of 70% or more and less than 90%)	5 (Herbicidal rate of 90% or more (almost completely withered))	4 (Herbicidal rate of 70% or more and less than 90%)	3 (Herbicidal rate of 40% or more and less than 70%)	5 (Herbicidal rate of 90% or more (almost completely withered))	3 (Herbicidal rate of 40% or more and less than 70%)	4 (Herbicidal rate of 70% or more and less than 90%)	3 (Herbicidal rate of 40% or more and less than 70%)	0 (Herbicidal rate of 5% or less (almost no effect))	Herbicidal effect by soil treatment, R: persian speedwell (persian speedwell [19]): 5 (Herbicidal rate of 90% or more (almost completely withered)); Herbicidal effect by soil treatment, I: wild oat (wild oat [20]): 0 (Herbicidal rate of 5% or less (almost no effect)); herbicidal effect on J: blackgrass (evaluation grade 0-5) (blackgrass [21]): 4 (Herbicidal rate of 70% or more and less than 90%); herbicidal effect on F: southern crabgrass (evaluation grade 0-5) (southern crabgrass [22]): 5 (Herbicidal rate of 90% or more (almost completely withered)); herbicidal effect on P: chickweed (evaluation grade 0-5) (chickweed [23]): 5 (Herbicidal rate of 90% or more (almost completely withered)); herbicidal effect on O: lambsquarters (evaluation grade 0-5) (lambsquarters [24]): 4 (Herbicidal rate of 70% or more and less than 90%); Herbicidal effect by soil treatment, P: chickweed (chickweed [25]): 5 (Herbicidal rate of 90% or more (almost completely withered))
